Measurements taken from ChEMBL document CHEMBL1126158, “Conformational analyses and molecular-shape comparisons of a series of indanone-benzylpiperidine inhibitors of acetylcholinesterase” (J Med Chem, 1992).

Molecular target: Acetylcholinesterase (Homo sapiens, UniProt P22303)
Assay: Inhibition of acetylcholinesterase activity

Chain of Acetylcholinesterase (P22303 whole entry): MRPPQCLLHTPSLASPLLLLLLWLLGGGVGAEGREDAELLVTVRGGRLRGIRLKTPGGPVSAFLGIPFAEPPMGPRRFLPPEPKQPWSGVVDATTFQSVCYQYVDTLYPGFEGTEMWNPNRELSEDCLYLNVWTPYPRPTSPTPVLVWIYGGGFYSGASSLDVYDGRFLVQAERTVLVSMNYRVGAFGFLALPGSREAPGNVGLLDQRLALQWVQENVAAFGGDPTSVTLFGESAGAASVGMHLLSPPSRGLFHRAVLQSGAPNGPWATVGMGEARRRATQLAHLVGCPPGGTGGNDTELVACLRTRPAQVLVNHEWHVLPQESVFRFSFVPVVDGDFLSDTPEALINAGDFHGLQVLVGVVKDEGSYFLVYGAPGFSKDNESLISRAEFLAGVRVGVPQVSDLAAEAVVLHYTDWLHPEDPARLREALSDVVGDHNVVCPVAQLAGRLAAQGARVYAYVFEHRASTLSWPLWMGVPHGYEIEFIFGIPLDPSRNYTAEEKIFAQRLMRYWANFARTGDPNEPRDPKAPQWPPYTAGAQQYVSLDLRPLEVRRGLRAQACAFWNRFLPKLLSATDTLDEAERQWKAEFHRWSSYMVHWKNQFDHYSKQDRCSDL

| Compound | IC50 |
| --- | --- |
| CC1CCN(Cc2ccc3ccccc3c2)CC1 | 2900 nM |
| Cc1ccccc1CN1CCC(C)CC1 | 10 nM |
| CN1CCC(CC/C=C2\Cc3ccccc3C2=O)CC1 | 0.82 nM |
| CN1CCC(/C=C2\Cc3ccccc3C2=O)CC1 | 8.4 nM |
| CC1CCN(CC2CCCCC2)CC1 | 8.9 nM |
| CN1CCC(CCCC2Cc3ccccc3C2=O)CC1 (centres undefined) | 1.5 nM |
| CN1CCC(/C=C/C=C2\Cc3ccccc3C2=O)CC1 | 3 nM |
| CC1CCN(Cc2ccccc2)CC1 | 5.3 nM |
| CC1CCN(CCc2ccccc2)CC1 | 180 nM |
| CC1CCN(CC2Cc3ccccc3C2=O)CC1 (centres undefined) | 480 nM |
| CC1CCN(Cc2ccccc2[N+](=O)[O-])CC1 | 160 nM |
| CN1CCC(CCC2C(=O)Nc3ccccc3C2=O)CC1 (centres undefined) | 4.2 nM |
| CN1CCC(CCN2C(=O)c3ccccc3C2=O)CC1 | 0.9 nM |
| CN1CCN(CC2Cc3ccccc3C2=O)CC1 (centres undefined) | 94 nM |
| CC1CCN(Cc2cccc3ccccc23)CC1 | 220 nM |
| CN1CCC(C[C@@H]2Cc3ccccc3C2=O)CC1 | 5.3 nM |
| CN1CCC(=C2Cc3ccccc3C2=O)CC1 | 1200 nM |
| CN1CCC(C[C@H]2Cc3ccccc3C2=O)CC1 | 7.7 nM |
| CN1CCC(C2Cc3ccccc3C2=O)CC1 (centres undefined) | 3300 nM |
